In PubChem BioAssay (NCI) one finds TGI data, which are given here for 13 molecules.

Some test systems named below: DU-145 prostate; IGROV1 ovarian; K-562 leukemia; M14 melanoma; MCF7 breast; MOLT-4 leukemia; OVCAR-4 ovarian; PC-3 prostate; SK-MEL-2 melanoma; U251 CNS.
Holding throughout (test): NCI-60 cell line screen, 48 h

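Tested at 5 concentrations; 48 h exposure; 96-well plates; endpoints linearly interpolated, else capped at highest concentration. TGI marks complete inhibition of growth.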

Take `O=C(c1ccccc1)n1[nH]c(=O)n(-c2ccc(Cl)cc2)c1=O`: the TGI in the assay on DU-145 prostate, in the assay with IGROV1 ovarian, in the assay with K-562 leukemia, with M14 melanoma, in the assay on MCF7 breast and in the assay with MOLT-4 leukemia was more than 100 µM throughout. In addition, the TGI in the assay with OVCAR-4 ovarian, in the assay with PC-3 prostate, in the assay with SK-MEL-2 melanoma and in the assay with U251 CNS was more than 100 µM throughout.
As for `COc1cccc(/C=N/n2c(Cc3ccc(Cl)cc3)n[nH]c2=O)c1`, the TGI in the assay on DU-145 prostate, in the assay on IGROV1 ovarian, in the assay on K-562 leukemia, in the assay with M14 melanoma, in the assay with MCF7 breast and with MOLT-4 leukemia was more than 100 µM each time. Further, the TGI in the assay with OVCAR-4 ovarian is more than 100 µM; in the assay with PC-3 prostate it was more than 100 µM; with SK-MEL-2 melanoma, 58.6 µM; in the assay with U251 CNS, 55.2 µM.
As to `CC(C)=CCC/C(C)=C/CC/C(C)=C/CSc1ccc(Cl)cc1C(=O)O`, the TGI was 56 µM in the assay on DU-145 prostate; 34.8 µM in the assay with IGROV1 ovarian; 64.9 µM in the assay with K-562 leukemia; 36.5 µM with M14 melanoma; 32.8 µM with MCF7 breast; 49.9 µM in the assay on MOLT-4 leukemia. Further, the TGI with OVCAR-4 ovarian is 86.8 µM; in the assay with PC-3 prostate, 29.7 µM; with SK-MEL-2 melanoma, 28.8 µM; in the assay on U251 CNS it was 34.7 µM.
Take `Cc1nc2sccn2c1C(=O)OCCOCCOCCOCCOC(=O)c1c(C)nc2sccn12`: the TGI in the assay on DU-145 prostate, in the assay with IGROV1 ovarian, in the assay on K-562 leukemia, in the assay on M14 melanoma, with MCF7 breast and with MOLT-4 leukemia was more than 100 µM throughout. For the same molecule, the TGI with OVCAR-4 ovarian, in the assay on PC-3 prostate, in the assay on SK-MEL-2 melanoma and in the assay on U251 CNS was more than 100 µM throughout.
Regarding `Cc1nc(N)nc(N)c1N1CCN(Cc2ccccc2)CC1`, the TGI in the assay on DU-145 prostate, in the assay with IGROV1 ovarian, with K-562 leukemia, with M14 melanoma, with MCF7 breast and with MOLT-4 leukemia was more than 100 µM throughout. In addition, the TGI in the assay with OVCAR-4 ovarian, in the assay with PC-3 prostate, in the assay on SK-MEL-2 melanoma and in the assay on U251 CNS was more than 100 µM each time.
`CCOC(=O)/C=C(/C(=O)OCC)n1ccc(=O)[nH]c1=O`: the TGI in the assay with DU-145 prostate worked out at 29 µM; in the assay with IGROV1 ovarian it was 31.1 µM; with K-562 leukemia, 6.55 µM; in the assay on M14 melanoma it was 13.2 µM; in the assay on MCF7 breast, 14.9 µM; in the assay on MOLT-4 leukemia, 6.12 µM. Further, the TGI came out at 38.7 µM in the assay with OVCAR-4 ovarian, 26.8 µM in the assay on PC-3 prostate, 30.4 µM with SK-MEL-2 melanoma and 27.3 µM with U251 CNS.
Take `CC12CCC(C1)C(C)(C)C2OC(=O)c1ccccc1C(=O)O` (centres undefined): the TGI in the assay on DU-145 prostate, in the assay on IGROV1 ovarian, in the assay on K-562 leukemia, in the assay with M14 melanoma, with MCF7 breast and with MOLT-4 leukemia was more than 100 µM throughout. Also, the TGI in the assay with OVCAR-4 ovarian, in the assay on PC-3 prostate, with SK-MEL-2 melanoma and in the assay with U251 CNS was more than 100 µM throughout.
With `C/C(NC(=O)c1ccccc1)=C(/C(=O)c1ccccc1)[C@@H]1OC(C)(C)O[C@@H]1[C@H]1COC(C)(C)O1`, the TGI with DU-145 prostate is more than 100 µM; in the assay with IGROV1 ovarian it was 42 µM; in the assay with K-562 leukemia it was 52.8 µM; in the assay on M14 melanoma, more than 100 µM; in the assay with MCF7 breast it was more than 100 µM; in the assay with MOLT-4 leukemia, 37.2 µM. The TGI with OVCAR-4 ovarian was more than 100 µM; with PC-3 prostate, more than 100 µM; with SK-MEL-2 melanoma, 54.9 µM; with U251 CNS, more than 100 µM.
`C=C1[C@H](OCC(C)C)[C@@H](OC(=O)C(C)CC)[C@@H](O)C(C)(C)/C=C/[C@H](C)C(=O)[C@@]2(O)C[C@H](C)[C@H](O)[C@@H]2[C@H]1OC(=O)C(C)CC` (some centres undefined): the TGI with DU-145 prostate was more than 20 µM; with IGROV1 ovarian, more than 20 µM; in the assay with K-562 leukemia it was more than 13.5 µM; with M14 melanoma, more than 11.1 µM; in the assay on MCF7 breast it was more than 16 µM; in the assay on MOLT-4 leukemia, more than 10.3 µM. Further, the TGI is more than 20 µM in the assay on OVCAR-4 ovarian, more than 14.8 µM in the assay with PC-3 prostate, more than 15 µM in the assay with SK-MEL-2 melanoma and more than 20 µM with U251 CNS.
Consider `COC1=CCC2=C(CCN(C(=O)C3CCC3)C2Cc2ccc(OC)c(O)c2)C1` (centres undefined), for which the TGI in the assay with DU-145 prostate was 51.9 µM; in the assay on IGROV1 ovarian it was more than 100 µM; in the assay with K-562 leukemia, more than 100 µM; in the assay with M14 melanoma it was 78.9 µM; in the assay with MCF7 breast it was 50.1 µM; in the assay with MOLT-4 leukemia, more than 100 µM. Moreover, the TGI in the assay with OVCAR-4 ovarian, in the assay with PC-3 prostate, with SK-MEL-2 melanoma and in the assay on U251 CNS was more than 100 µM in each case.
For `CN(/N=C/c1ccc(Cl)c(Cl)c1)C1=NCCN1`, the TGI was more than 100 µM in the assay with DU-145 prostate; more than 100 µM in the assay on IGROV1 ovarian; more than 100 µM in the assay on K-562 leukemia; 31.6 µM with M14 melanoma; 49.8 µM in the assay on MCF7 breast; 59.8 µM in the assay on MOLT-4 leukemia. Also, the TGI in the assay on OVCAR-4 ovarian is more than 100 µM; in the assay with PC-3 prostate, 38.3 µM; in the assay on SK-MEL-2 melanoma, 43.6 µM; in the assay with U251 CNS, 59.8 µM.
For `CCCC1C(C#N)(C#N)C(C#N)=C(N)C1(C)C(C)=O` (centres undefined), the TGI in the assay on DU-145 prostate, in the assay on IGROV1 ovarian, in the assay on K-562 leukemia, in the assay with M14 melanoma, with MCF7 breast and in the assay on MOLT-4 leukemia was more than 100 µM throughout. In addition, the TGI in the assay on PC-3 prostate, with SK-MEL-2 melanoma and in the assay with U251 CNS was more than 100 µM in each case.
For the molecule `CCOC(=O)C12C(=O)CCN1CCc1ccccc1C2C` (centres undefined), the TGI in the assay on DU-145 prostate, in the assay on IGROV1 ovarian, in the assay with K-562 leukemia, with M14 melanoma, in the assay with MCF7 breast and with MOLT-4 leukemia was more than 100 µM each time. The TGI in the assay on OVCAR-4 ovarian, in the assay on PC-3 prostate, in the assay with SK-MEL-2 melanoma and in the assay on U251 CNS was more than 100 µM each time.
